PubChem BioAssay AID2060912 (Molecular Pharmacology Branch, DTP, NCI, 2025)

Test system: HUVEC/MSC spheroids viability
Experiment: Human HUVEC/MSC cell line growth inhibition [KRAS2];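 on viability, T/C: percent of DMSO vehicle control luminescence so 100% = untreated viability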
Conditions: for IC50: curve of first compound; for viability, T/C: stronger effect = lower value
Method in brief: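 Spheroids of pooled-donor HUVEC and hMSC (passage ≤5) without tumour cells were treated with KRAS-pathway inhibitors alone and combined with targeted agents. Top concentration was at or near clinical Cmax, or 10 microM when Cmax was unknown, descending in half-log steps.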

[1] = second compound 0.0316 µM, first compound 0.0316 µM
[2] = second compound 0.0316 µM, first compound 0.1 µM
[3] = second compound 0.1 µM, first compound 0.0316 µM
[4] = second compound 0.1 µM, first compound 0.1 µM
[5] = second compound 0.316 µM, first compound 0.0316 µM
[6] = second compound 0.316 µM, first compound 0.1 µM
[7] = second compound 1 µM, first compound 0.0316 µM
[8] = second compound 1 µM, first compound 0.1 µM
[9] = second compound 3.16 µM, first compound 0.0316 µM
[10] = second compound 3.16 µM, first compound 0.1 µM
[11] = second compound 10 µM, first compound 0.0316 µM
[12] = second compound 10 µM, first compound 0.1 µM

Work on `CC(C)NCC(C(=O)N1CCN(c2ncnc3c2C(C)CC3O)CC1)c1ccc(Cl)cc1` (centres undefined) + COc1cc2nc(C)nc(NC(C)c3cc(N)cc(C(F)(F)F)c3)c2cc1OC1CCOC1 yielded an IC50 (second compound 0.0316 µM) of 1970 nM, an IC50 (second compound 0.1 µM) of 1580 nM and an IC50 (second compound 0.316 µM) of 2100 nM. The IC50 (second compound 1 µM) was 2240 nM, the IC50 (second compound 3.16 µM) was 3010 nM and the IC50 (second compound 10 µM) was 996 nM. The viability, T/C [1] was 92.4%, the viability, T/C [2] was 95.3% and the viability, T/C (second compound 0.0316 µM, first compound 0.316 µM) was 77.1%. The viability, T/C (second compound 0.0316 µM, first compound 1 µM) was 52%, the viability, T/C (second compound 0.0316 µM, first compound 3.16 µM) was 48% and the viability, T/C (second compound 0.0316 µM, first compound 10 µM) was 49.5%. It also gave a viability, T/C [3] of 77.5%, a viability, T/C [4] of 97.5% and a viability, T/C (second compound 0.1 µM, first compound 0.316 µM) of 77.5%. For the same compound, the viability, T/C (second compound 0.1 µM, first compound 1 µM) was 53.4%, the viability, T/C (second compound 0.1 µM, first compound 3.16 µM) was 50% and the viability, T/C (second compound 0.1 µM, first compound 10 µM) was 36.5%. For the same compound, the viability, T/C [5] was 80.1%, the viability, T/C [6] was 102% and the viability, T/C (second compound 0.316 µM, first compound 0.316 µM) was 81.2%. For the same compound, the viability, T/C (second compound 0.316 µM, first compound 1 µM) was 62.9%, the viability, T/C (second compound 0.316 µM, first compound 3.16 µM) was 42.8% and the viability, T/C (second compound 0.316 µM, first compound 10 µM) was 40.4%. It also gave a viability, T/C [7] of 85.1%, a viability, T/C [8] of 104% and a viability, T/C (second compound 1 µM, first compound 0.316 µM) of 88.5%. It also gave a viability, T/C (second compound 1 µM, first compound 1 µM) of 59.8%, a viability, T/C (second compound 1 µM, first compound 3.16 µM) of 46.8% and a viability, T/C (second compound 1 µM, first compound 10 µM) of 44.1%. For the same compound, the viability, T/C [9] was 74%, the viability, T/C [10] was 94.2% and the viability, T/C (second compound 3.16 µM, first compound 0.316 µM) was 76.9%. It also gave a viability, T/C (second compound 3.16 µM, first compound 1 µM) of 61.8%, a viability, T/C (second compound 3.16 µM, first compound 3.16 µM) of 52.9% and a viability, T/C (second compound 3.16 µM, first compound 10 µM) of 36.3%. It also gave a viability, T/C [11] of 58%, a viability, T/C [12] of 71.1% and a viability, T/C (second compound 10 µM, first compound 0.316 µM) of 75.8%. For the same compound, the viability, T/C (second compound 10 µM, first compound 1 µM) was 49.9%, the viability, T/C (second compound 10 µM, first compound 3.16 µM) was 42.5% and the viability, T/C (second compound 10 µM, first compound 10 µM) was 33.4%.
With `CC(C)n1nc(-c2ccc3oc(N)nc3c2)c2c(N)ncnc21` + COc1cc2nc(C)nc(NC(C)c3cc(N)cc(C(F)(F)F)c3)c2cc1OC1CCOC1 the IC50 (second compound 0.0316 µM) was 3.01 nM, the IC50 (second compound 0.1 µM) was 6.81 nM and the IC50 (second compound 0.316 µM) was 2.94 nM. It also gave an IC50 (second compound 1 µM) of 2.8 nM, an IC50 (second compound 3.16 µM) of 2.49 nM and an IC50 (second compound 10 µM) of 5.16 nM. It also gave a viability, T/C (second compound 0.0316 µM, first compound 0.000316 µM) of 78.9%, a viability, T/C (second compound 0.0316 µM, first compound 0.001 µM) of 80.2% and a viability, T/C (second compound 0.0316 µM, first compound 0.00316 µM) of 48.5%. The viability, T/C (second compound 0.0316 µM, first compound 0.01 µM) was 53%, the viability, T/C [1] was 49.2% and the viability, T/C [2] was 44%. It also gave a viability, T/C (second compound 0.1 µM, first compound 0.000316 µM) of 82.9%, a viability, T/C (second compound 0.1 µM, first compound 0.001 µM) of 61.5% and a viability, T/C (second compound 0.1 µM, first compound 0.00316 µM) of 55.5%. For the same compound, the viability, T/C (second compound 0.1 µM, first compound 0.01 µM) was 46.5%, the viability, T/C [3] was 50.5% and the viability, T/C [4] was 39.6%. For the same compound, the viability, T/C (second compound 0.316 µM, first compound 0.000316 µM) was 79.8%, the viability, T/C (second compound 0.316 µM, first compound 0.001 µM) was 76.2% and the viability, T/C (second compound 0.316 µM, first compound 0.00316 µM) was 48.2%. It also gave a viability, T/C (second compound 0.316 µM, first compound 0.01 µM) of 41.1%, a viability, T/C [5] of 46.1% and a viability, T/C [6] of 39%. The viability, T/C (second compound 1 µM, first compound 0.000316 µM) was 76%, the viability, T/C (second compound 1 µM, first compound 0.001 µM) was 67.2% and the viability, T/C (second compound 1 µM, first compound 0.00316 µM) was 49.3%. For the same compound, the viability, T/C (second compound 1 µM, first compound 0.01 µM) was 34.5%, the viability, T/C [7] was 51% and the viability, T/C [8] was 37.7%. For the same compound, the viability, T/C (second compound 3.16 µM, first compound 0.000316 µM) was 77%, the viability, T/C (second compound 3.16 µM, first compound 0.001 µM) was 71.8% and the viability, T/C (second compound 3.16 µM, first compound 0.00316 µM) was 44.2%. It also gave a viability, T/C (second compound 3.16 µM, first compound 0.01 µM) of 41.7%, a viability, T/C [9] of 41.8% and a viability, T/C [10] of 43.1%. The viability, T/C (second compound 10 µM, first compound 0.000316 µM) was 62.7%, the viability, T/C (second compound 10 µM, first compound 0.001 µM) was 61% and the viability, T/C (second compound 10 µM, first compound 0.00316 µM) was 59.3%. It also gave a viability, T/C (second compound 10 µM, first compound 0.01 µM) of 33.7%, a viability, T/C [11] of 41.2% and a viability, T/C [12] of 37.4%.
